Structures are written as SMILES.

The data set is described as follows: Metabolic stability assay in human liver microsomes. It counts as in vitro ADME. Conditions: for microsomal CLint at 1 μM: human liver microsomes 0.2 mg/mL, test compound 1 μM, NADPH/NADH, n = 4, read-out: hepatic intrinsic clearance (Clint). The method, then:
The following reaction system was prepared with reference to the method disclosed by Obach, and that disclosed by Jones et al. (References 1 and 2), and the metabolic stability thereof was evaluated. Note that the human liver microsomes used were purchased from BD Gentest. The test compound was dissolved in DMSO to have a concentration of 10 mM and diluted with acetonitrile in such a manner that its concentration became 100 μM.
A reaction system without a coenzyme was preincubated at 37° C. for 5 minutes, and a coenzyme was then added to start the reaction. After the addition of the coenzyme, the incubation was performed at selected time intervals, i.e., 0, 5, 10, 20, 30 and 60 minutes to extract a portion of the reaction mixture. The extracted reaction mixture was added to an acetonitrile solution containing an internal standard substance and the reaction was then terminated.
After the reaction was terminated, the resulting mixture was centrifuged, the supernatant was poured into a liquid chromatograph tandem mass spectrometer (LC-MS/MS) to determine the level of unchanged substance remaining in the reaction system. Ionization was performed by electro-spray ionization (ESI) in a positive ion detection mode. Here, selected reaction monitoring (MRM) using preset precursor ions and product ions was employed.
The remaining ratio of the test compound was calculated by the following equation. Remaining ratio=(peak area of the test compound at the reaction time of t minutes/peak area of the internal standard substance)÷(peak area of the test compound at the reaction time of 0 minutes/peak area of the internal standard substance)
A nonlinear least-squares analysis was performed in terms of the remaining ratio and incubation time to obtain the elimination rate constant (0.693/t1/2), and, further, the hepatic intrinsic clearance (Clint) was obtained using the following Formula (1). Clint (μL/min/mg)=(0.693/t1/2)÷0.2 (mg/mL)×1000 (1) […]
On the technique in general: Liver microsomes are vesicles of endoplasmic reticulum, rich in cytochrome P450 enzymes.

For the molecule `[2H]C1([2H])CC([2H])([2H])C([2H])(O)c2cc(Cl)ccc2N1C(=O)c1ccc(NC(=O)c2ccccc2C)cc1C` (stereo not drawn) [Example 4, N-(4-(7-chloro-5-hydroxy-2,2,4,4,5-pentadeutero-1H-benzo[b]azepine-1-carbonyl)-3-methylphenyl)-2-methylbenzamide], the microsomal CLint at 1 μM was 166 ± 5.3 µL/min/mg. In addition, the “metabolic stability compared to tolvaptan” value (human liver microsomes, two-tailed Dunnett's test, p<0.001) is listed as “significantly improved metabolic stability compared to tolvaptan”.
Regarding `Cc1ccccc1C(=O)Nc1ccc(C(=O)N2CCCC(O)c3cc(Cl)ccc32)c(C)c1` (stereo not drawn) [Tolvaptan, tolvaptan, reference compound], the microsomal CLint at 1 μM came out at 214 ± 4.3 µL/min/mg.

For the origin of these results see patent US8940727B2, “Benzazepine compound” (Otsuka Pharmaceutical Co., Ltd., priority 2009, dated 2015).
